Measurements reported in patent US20090074774A1, “Fgfr binding peptides” (priority 2004, published 2009).
“Also recorded” adds a separate entry of the source.

Legend:
[1] = test system: rat cerebellar granular neurons (CGNs); experiment: Stimulation of neurite outgrowth of cerebellar granule neurons in culture; type: cell-based; conditions: for effect of FGFR inhibitor on neurite outgrowth stimulated by EFL: CGNs; for stimulation of neurite outgrowth: CGNs from 7-day-old rats, peptide treatment 24 h, culture without substrate
Procedure: B. Neurite outgrowth stimulated by EFL is inhibited by SU5402, an inhibitor of fibroblast growth factor receptor 1 (FGFR1). Results from four independent experiments are in all cases expressed as a percentage±SEM, with non-treated control cells set at 100%. *P<0.05, **P<0.01, ***P<0.001, compared with control. Paired student's t-test. For experiments, CGNs from 7-old-day rats were treated with the peptides for 24 hr. The cultures were fixed in 4% paraformaldehyde, followed by blocking with 1% BSA and then immunostained with rabbit anti-rat GAP-43 primary antibodies, and then with secondary Alexa Fluor®488 goat anti-rabbit antibodies.
Cerebellar granule neurons (CGN) were prepared from postnatal day seven Wistar rats largely as previously described (Neiiendam et al, (2004) J. Neurochem. 91(4):920-35). Cerebellar tissue was dissected in modified Krebs-Ringer solution kept on ice, and treated as described for the hippocampal neurons above. All cell cultures were incubated at 37° C. in a humidified atmosphere containing 5% CO2. All animals were handled in accordance with the national guidelines for animal welfare.
Dissociated cells were plated at a density of 10,000 cells/cm^2 on uncoated 8-well permanox Lab-Tek chamber slides in Neurobasal medium supplemented with 0.4% (w/v) bovine serum albumin (BSA; Sigma-Aldrich), 2% (v/v) B27 Neurobasal supplement, 1% (v/v) glutamax, 100 U/ml penicillin, 100 μg/ml streptomycin and 2% 1 M HEPES (all from Gibco, BRL). Peptide solutions without or with inhibitors of various signal transduction pathways were added to a total volume of 300 μl/cm^2, and the slides were incubated at 37° C. After 24 hours, the neurons were fixed with 4% (v/v) formaldehyde for 20 minutes and thereafter immunostained using primary rabbit antibodies against GAP-43 and Alexa Fluor secondary goat anti-rabbit antibodies. Images of at least 200 neurons for each group in each individual experiment were obtained systematically by using computer assisted fluorescence microscopy as previously described (Ronn et al., 2000 op. cit.). Briefly, a Nikon Diaphot inverted microscope with a Nikon Plan 20× objective (Nikon, Tokyo, Japan) coupled to a video camera (Grundig Electronics, Germany) was used for recordings. The same software package as described above for the dopaminergic neurite outgrowth assay was used to process the recorded images.

[2] = biological target: T1, recombinant FGFR1 (immobilized FGFR Ig modules 2, 3) (Homo sapiens, UniProt P11362); experiment: Binding of fragments of NCAM F3, 1 to FGFR1 by surface plasmon resonance; conditions: 25° C., pH 7.4
T1 construct: The FGFR Ig modules 2, 3 were immobilized on a sensor chip CM5; made in house; host or cells: Drosophila S2 cells (Invitrogen)
T1 sequence (P11362 150-365 limits assumed): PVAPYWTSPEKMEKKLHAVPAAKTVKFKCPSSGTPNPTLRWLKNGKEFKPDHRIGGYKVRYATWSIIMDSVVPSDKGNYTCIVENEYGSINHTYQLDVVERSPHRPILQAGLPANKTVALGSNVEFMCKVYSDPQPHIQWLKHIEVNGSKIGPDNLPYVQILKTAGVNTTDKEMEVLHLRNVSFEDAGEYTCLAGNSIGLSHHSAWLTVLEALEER
Source text: The binding is given as a response difference (Resp. Diff.) between the binding to the sensor chip with the immobilized FGFR1 modules and a blank sensor chip (unspecific binding). Abbreviations: AB-A strand-loop-B strand (corresponds to the ABL peptide of SEQ ID NO: 2); CD-C strand-loop-D strand (corresponds to the CDL peptide of SEQ ID NO: 1); EF-E strand-loop-F strand (corresponds to the EFL peptide of SEQ ID NO: 5); BC-B strand-loop-C strand of F3, 1 module of NCAM; DE-D strand-loop-E strand of F3, 1 module of NCAM; FG-F strand-loop-G strand of F3, 1 module of NCAM.
The FGFR Ig module 3 and modules 2, 3 were expressed in Drosophila S2 cells (Invitrogen, USA) according to the manufacturer's instructions. All the proteins were purified by affinity chromatography using Ni^2+-NTA resin (Qiagen, USA) and/or ion exchange chromatography and gel filtration.
Binding analysis was performed using a BIAcoreX instrument (Biosensor AB) at 25° C. using 10 mM sodium phosphate pH 7.4, 150 mM NaCl as running buffer. The flow-rate was 5 μl/min. Data were analysed by non-linear curve-fitting using the manufacture's software. The FGFR Ig modules 2, 3 were immobilized on a sensor chip CM5 using amine coupling kit (Biosensor AB) as follows: 1) the two halves of the chip (designated Fc1 and Fc2) were activated by 20 μl activation solution; 2) the protein was immobilized on Fc1 using 12 μl 20 μg/ml protein in 10 mM sodium phosphate buffer pH 6.0; 3) Fc1 and Fc2 were blocked by 35 μl blocking solution. Binding of various compounds to the immobilized FGFR modules was studied as follows: A compound was injected simultaneously into Fc1 (with the immobilized FGFR modules) and Fc2 (with nothing immobilized). The curve representing unspecific binding of the compound to the surface of Fc2 was subtracted from the curve representing binding of the protein to the immobilized FGFR modules and the surface of Fc1. The resulting curve was used for analysis. The results of the binding experiments are present on FIG. 4.

[3] = test system: caspase3-like activity in cultures of rat cerebellar granular neurons; experiment: Caspase-3-like activity assay in cerebellar granule neurons; type: cell-based; conditions: monomeric peptides; for apoptosis-associated Caspase-3-like activity: cells in culture medium depleted of KCl (5 mM); for effect on Caspase-3-like activity compared with high KCl (40 mM): culture medium depleted of KCl
Procedure: The effect of the peptide is compared to the effect of high concentration of kCl. *P<0.05, **P<0.01, paired student's t-test
Primary cultures of CGN were prepared as described above and apoptosis in cells was induced as described above.
For the caspase-3 assay, cultured CGN were dislodged, collected by centrifugation and lyzed. Aliquots of lysed cells were used for the assay which was performed according to the manufacturer's instructions (Promega, USA),

[4] = test system: rats; experiment: Social Recognition Test (SRT); type: in vivo, rat; conditions: subcutaneous 4 mg/kg; 1 h and 24 h after administration; paired t-test
Procedure: Results from 8-9 animals expressed as a percentage±SEM. Paired t-test (*P<0.05 and ***P<0.001); B Time spent with social investigation at first meeting (T1) and second meeting (T2) 24 h after peptide/vehicle administration. Results from 9 animals expressed as a percentage±SEM. Paired t-test (*P<0.05).
The animals were evaluated using the SRT, 1 hour and 24 hours after subcutaneous injection of the peptide or vehicle.
Habituation session: On the day before the social recognition test (SRT), one habituation session was performed under similar conditions as the test session for adaptation to the experimental room, time when the test was performed, test cage, and contact with juvenile rats (a different juvenile was used during habituation session and social recognition test). The inter-trial interval for the habituation session was of 1 hour.
Experimental session: Each experimental session consisted of an initial and a test trial separated by an inter-trial (retention) interval of 2 hours.
Initial trial. Adult animals were individually housed 1 hour before testing in the test cage. For testing, a juvenile was placed into the cage and the social investigation by the adult rat was measured cumulatively for 4 min. Sniffing and grooming of body parts, anogenital sniffing and close following were scored. […]

[5] = test system: rat cerebellar granular neurons; experiment: Survival assay of cerebellar granule neurons (apoptosis induced by low KCl); type: cell-based; conditions: for survival of CGN in culture: peptides as dendrimers (CDLd, EFLd, ABLd), apoptosis induced by 5 mM KCl, two days; for survival effect compared with the C3 peptide and GDNF: peptides as dendrimers, FIG. 2A
Procedure: The effect of the peptides is compared to the effect of glia-derived neurotrophic factor (GDNF) and dendrimeric form of the C3 peptide (C3d). […] Paired student's t-test.
Primary cultures of CGN were plated at a density of 100,000 cells/cm^2 on poly-L-lysine coated 8-well permanox slides in Neurobasal-A medium (Gibco, BRL) supplemented with 2% (v/v) B27, 0.5% (v/v) glutamax, 100 U/ml penicillin, 100 μg/ml streptomycin and KCl, making the final concentration of KCl in the medium 40 mM. 24 hours after plating, cytosine-β-D-arabinofuranoside (Ara-C; Sigma-Aldrich) was added to a final concentration of 10 μM to avoid proliferation of glial cells, after which the neurons were allowed to differentiate for further six days at 37° C. Apoptotic cell death was induced by washing twice and changing the medium to Basal Medium Eagle (BME; Gibco BRL) supplemented with 1% (v/v) glutamine, 100 U/ml penicillin and 100 μg/ml streptomycin, 3.5 g D-glucose/l and 1% (v/v) sodium pyruvate (Gibco BRL) together with various concentrations of peptide. Thereby the concentration of potassium in the cultures was reduced to 5 mM KCl. Two days after induction of apoptosis, the cells were fixed with 4% formaldehyde and stained with Hoechst 33258 as described for the survival assay employing hippocampal neurons.
The assay is performed as described by D'Mello et al., (1993) (Proc Natl Acad Sci U S A. 90:10989-93).

[6] = test system: adult male Wistar rats; experiment: Contextual Fear Conditioning Test (CFC); type: in vivo, rat; conditions: peptide injected immediately after training
Procedure: The rats were handled for 120 seconds every day for 3 days preceding the first day of the experiment. On day 1 (training), the rats received a 1-second shock (unconditioned stimuli) each minute for two minutes. Animals were injected immediately after training with 5 μl EFL, ABL, CDL or control peptide, or the vehicle. Each treatment group consisted of 11-14 rats. In total, […] animals were evaluated. […] Each rat was rated as either “freezing” or “active”, every 2 seconds, using a time-sampling procedure.

[7] = tested on day 8 after conditioning, placebo/control 32%

direct binding to FGFR (SPR) [2]	effect on Caspase-3-like activity compared with high KCl (40 mM) [3]	Compound	effect of FGFR inhibitor on neurite outgrowth stimulated by EFL [1]	effect of FGFR inhibitor on neurite outgrowth stimulated by EFL ([1]; listed as SU5402)	stimulation of neurite outgrowth [1]	apoptosis-associated Caspase-3-like activity [3]	difference between T1 and T2 of the same animal (presence of social memory) [4]	survival of CGN in culture [5]	survival effect compared with the C3 peptide and GDNF [5]	time of freezing [6, 7] [%]	time of freezing ([6]; tested on day 1 after conditioning, placebo/control 40.0%)
–	–	Cc1c[nH]c(/C=C2\C(=O)Nc3ccccc32)c1CCC(=O)O [SU 5402]	abolished	inhibited	–	–	–	–	–	–	–
capable of direct binding	comparable	KAEWKSLGEEAWHSK (CDL peptide, fragment of NCAM F3,1) [C strand-loop-D strand fragment of NCAM F3, 1 module]	–	–	strong stimulators; also recorded: stimulate neurite outgrowth	inhibit	significant differences between T1 and T2	significantly promote survival	higher	42.5	–
capable of direct binding	–	SIDRVEPYSSTAQVQFD (ABL peptide, fragment of NCAM F3,1) [A strand-loop-B strand fragment of NCAM F3, 1 module]	–	–	inactive	–	–	does not influence survival	–	–	–
capable of direct binding	comparable	TIMGLKPETRYAVR (TIMGLKPETRTYAVR; EFL peptide, fragment of NCAM F3,1) [E strand-loop-F strand fragment of NCAM F3, 1, used as positive control]	–	–	strong stimulators; also recorded: stimulate neurite outgrowth	inhibit	significant differences between T1 and T2	significantly promote survival	higher	42.5	approximately 50.3%
